Values of other authors, collected in US8273732B2, “Compositions for combating beta-lactamase-medicated antibiotic resistance using beta-lactamase inhibitors useful for injection” (Venus Remedies Limited, priority 2004, dated 2012).
Converted amounts (≈) assume the structure as drawn. Where a name gives a salt, the structure may show the parent alone.

Key:
[1] = test system: Acinetobacter baumannii; conditions: 156 clinical isolates of A. baumannii

solubility in ethanol (ethanol) | solubility in methanol (methanol) | solubility in water (water) | SMILES | MIC (90) [1] [µg/mL]
 |  |  | CC1(C)[C@H](C(=O)O)N2C(=O)C[C@H]2S1(=O)=O [Sulbactam, sulbactam] | 32 (≈ 137 µM)
very slightly soluble | sparingly soluble | readily soluble | CO/N=C(\C(=O)N[C@@H]1C(=O)N2C(C(=O)O)=C(CSc3nc(=O)c(=O)[nH]n3C)CS[C@H]12)c1csc(N)n1 [ceftriaxone sodium, (6R,7R)-7-[2-(2-amino-4-thiazolyl)glyoxylamido]-8-oxo-3-[[(1,2,5,6-tetrahydro-2-methyl-5,6-dioxo-as-triazin-3-yl)thio]methyl]-5-thia-1-azabicyclo[4.2.0]oct-2-ene-2-carboxylic acid, 7^2-(Z)-(O-methyloxime), disodium salt, sesquaterhydrate] | 
